Reference: the NIST ThermoML archive (doi:10.1021/je030102f)

Legend:
[1] = 101.33 kPa, Liquid, vibrating tube
[2] = xn = mol fraction of the nth substance listed; details: 101.33 kPa, Liquid, vibrating tube

CC(C)=O [acetone]
[1]
Details | mass density [kg/m3]
283.15 K | 801.669
288.15 K | 796.037
293.15 K | 790.355
298.15 K | 784.638
303.14 K | 778.876
308.15 K | 773.065
313.14 K | 767.205
318.14 K | 761.288
323.14 K | 755.314

CC(C)=O [acetone] + CCC(=O)O
[2], x1 = 1
Details | mass density [kg/m3]
283.15 K | 801.669
288.15 K | 796.037
293.15 K | 790.355
298.15 K | 784.638
303.14 K | 778.876
308.15 K | 773.065
313.14 K | 767.205
318.14 K | 761.288
323.14 K | 755.314

CCC(=O)O [propanoic acid]
[1]
Details | mass density [kg/m3]
283.15 K | 1004.11
288.15 K | 998.688
293.15 K | 993.261
298.15 K | 987.847
303.14 K | 982.44
308.15 K | 977.037
313.14 K | 971.635
318.14 K | 966.24
323.15 K | 960.843

O [water]
[1]
Details | mass density [kg/m3]
283.15 K | 999.691
318.14 K | 990.13
323.14 K | 988.003

O [water] + CC(C)=O
[2], x2 = 0
Details | mass density [kg/m3]
283.15 K | 999.691
318.14 K | 990.13
323.14 K | 988.003

O [water] + CCC(=O)O
[2], x2 = 0
Details | mass density [kg/m3]
283.15 K | 999.691
318.14 K | 990.13
323.14 K | 988.003
